Values quoted from earlier work, collected in patent US10143689B2, “SN-38 loaded iron crosslinked micelle and methods thereof” (Intezyne Technologies, Inc., priority 2017, dated 2018).

Tests used:
various cancer cells = settings: in vitro

## CCc1c2c(nc3ccc(O)cc13)-c1cc3c(c(=O)n1C2)COC(=O)[C@]3(O)CC [SN-38, 7-ethyl-10-hydroxy-CPT]
other
  solubility in aqueous solutions: exceedingly insoluble
Various cancer cells
  cytotoxic activity, potency relative to CPT-11: up to 1,000 fold
